Where two headings read alike, the source gives them in different places.
Assay: Plasma pharmacokinetics of lorlatinib at steady state (LC-MS/MS, non-compartmental analysis)
Assay type: in vivo, human
Conditions: human, plasma, oral; for Cmax: read-out: Cmax; for Tmax: read-out: Tmax
Text: Lorlatinib was isolated from human plasma by a liquid-iquid extraction procedure. […] A linear-log trapezoidal method was used [NT] A best-fit method was used to estimate terminal elimination and to extrapolate any plasma concentration versus time profiles to compute [NT].

[1] = 60 mg/m2, Cohort A1, 60 mg/m2 per dose, C1D15, individual patient
[2] = 60 mg/m2, Cycle 1 Day 1, Cohort A1, 60 mg/m2 per dose, individual patients
[3] = 60 mg/m2, Cycle 1 Day 15, Cohort A1, 60 mg/m2 per dose, individual patients
[4] = 75 mg/m2, Cohort A1, 75 mg/m2 per dose, C1D15, Geometric Mean, N 3
[5] = 75 mg/m2, Cohort A1, 75 mg/m2 per dose, C1D15, Median, N 3
[6] = 75 mg/m2, Cycle 1 Day 1, Cohort A1, 75 mg/m2 per dose, individual patients
[7] = 95 mg/m2, Cohort A1, 95 mg/m2 per dose, C1D15, Geometric Mean, N 9
[8] = 95 mg/m2, Cohort A1, 95 mg/m2 per dose, C1D15, Median, N 9
[9] = 95 mg/m2, Cohort B2, 95 mg/m2 per dose, C1D15, Geometric Mean, N 2
[10] = 95 mg/m2, Cohort B2, 95 mg/m2 per dose, C1D15, Median, N 2
[11] = 95 mg/m2, Cohort B2, 95 mg/m2 per dose, C1D15, individual patient
[12] = 95 mg/m2, Cycle 1 Day 1, Cohort A1, 95 mg/m2 per dose
[13] = 95 mg/m2, Cycle 1 Day 1, Cohort B2, 95 mg/m2 per dose
[14] = 95 mg/m2, Cycle 1 Day 1, Cohort A1, 95 mg/m2 per dose, individual patients
[15] = 95 mg/m2, Cycle 1 Day 15, Cohort B2, 95 mg/m2 per dose
[16] = 95 mg/m2, steady state, Cohort B2 (with topotecan/cyclophosphamide), 95 mg/m^2 QD, individual values
[17] = 100 mg, Cohort A2, 100 mg per dose, C1D15, Geometric Mean, N 5
[18] = 100 mg, Cohort A2, 100 mg per dose, C1D15, Median, N 5
[19] = 100 mg, Cycle 1 Day 1, Cohort A2, 100 mg per dose, individual patients
[20] = 150 mg per dose, Cycle 1 Day 1, Cohort A2, 150 mg per dose
[21] = 150 mg per dose, Cycle 1 Day 15, Cohort A2, 150 mg per dose
[22] = 150 mg, Cohort A2, 150 mg per dose, C1D15, Geometric Mean, N 10
[23] = 150 mg, Cohort A2, 150 mg per dose, C1D15, Median, N 10
[24] = 150 mg, Cycle 1 Day 1, Cohort A2, 150 mg per dose, individual patients
[25] = 150 mg, Cycle 1 Day 15, Cohort A2, 150 mg per dose, individual patients

Which results are given for C[C@H]1Oc2cc(cnc2N)-c2c(nn(C)c2C#N)CN(C)C(=O)c2ccc(F)cc21 [Lorlatinib, (10R)-7-amino-12-fluoro-2,10,16-trimethyl-15-oxo-10,15,16,17-tetrahydro-2H-8,4-(metheno)pyrazolo[4,3-h][2,5,11]-benzoxadiazacyclotetradecine-3-carbonitrile]?
Cmax [1]: 623 ng/mL; Tmax [1]: 2 h; AUC(0-t) [2]: 3960 ng·h/mL; MRT last [2]: 6.96 h; Cmax [2]: 761 ng/mL; Tmax [2]: 1 h; AUC(0-t) [3]: 4140 ng·h/mL; AUC(0-inf) (60 mg/m2, Cycle 1 Day 15, Cohort A1, 60 mg/m2 per dose, individual patients, read-out: AUCINF_obs): 5050 ng·h/mL; AUC(0-inf) (60 mg/m2, Cycle 1 Day 15, Cohort A1, 60 mg/m2 per dose, individual patients, read-out: AUCINF_pred): 5040 ng·h/mL; AUC (60 mg/m2, Cycle 1 Day 15, Cohort A1, 60 mg/m2 per dose, individual patients, read-out: AUC_TAU): 4140 ng·h/mL; AUC (60 mg/m2, Cycle 1 Day 15, Cohort A1, 60 mg/m2 per dose, individual patients, read-out: AUCall): 4140 ng·h/mL; Cmax [3]: 623 ng/mL; MRT inf (60 mg/m2, Cycle 1 Day 15, Cohort A1, 60 mg/m2 per dose, individual patients, read-out: MRTINF_obs): 13 h; MRT inf (60 mg/m2, Cycle 1 Day 15, Cohort A1, 60 mg/m2 per dose, individual patients, read-out: MRTINF_pred): 12.9 h; Tmax [3]: 2 h; AUC (60 mg/m2, steady state, Cohort A1, 60 mg/m^2 QD, (CV), read-out: AUCtau): 3930 ng·h/mL; Cmax (60 mg/m2, steady state, Cohort A1, 60 mg/m^2 QD, (CV)): 492 ng/mL; Tmax (60 mg/m2, steady state, Cohort A1, 60 mg/m^2 QD): 2 h; AUC (75 mg/m2, Cohort A1, 75 mg/m2 per dose, C1D15, Geometric Mean, N 3, read-out: AUC_TAU): 4150 ng·h/mL; Cmax [4]: 645 ng/mL; Tmax [4]: 2.29 h; AUC (75 mg/m2, Cohort A1, 75 mg/m2 per dose, C1D15, Median, N 3, read-out: AUC_TAU): 4020 ng·h/mL; Cmax [5]: 659 ng/mL; Tmax [5]: 2 h; Cmax (75 mg/m2, Cohort A1, 75 mg/m2 per dose, C1D15, individual patient): 659 ng/mL; AUC(0-t) [6]: 6740 ng·h/mL; MRT last [6]: 7.77 h; AUC (75 mg/m2, Cycle 1 Day 1, Cohort A1, 75 mg/m2 per dose, individual patients, read-out: AUCall): 6740 ng·h/mL; Cmax [6]: 961 ng/mL; Tmax [6]: 1 h; AUC(0-inf) (75 mg/m2, Cycle 1 Day 15, Cohort A1, 75 mg/m2 per dose, individual patients, read-out: AUCINF_obs): 4500 ng·h/mL; AUC(0-inf) (75 mg/m2, Cycle 1 Day 15, Cohort A1, 75 mg/m2 per dose, individual patients, read-out: AUCINF_pred): 4490 ng·h/mL; Cmax (75 mg/m2, Cycle 1 Day 15, Cohort A1, 75 mg/m2 per dose, individual patients): 659 ng/mL; MRT inf (75 mg/m2, Cycle 1 Day 15, Cohort A1, 75 mg/m2 per dose, individual patients, read-out: MRTINF_obs): 10.3 h; MRT inf (75 mg/m2, Cycle 1 Day 15, Cohort A1, 75 mg/m2 per dose, individual patients, read-out: MRTINF_pred): 10.3 h; AUC (75 mg/m2, steady state, Cohort A1, 75 mg/m^2 QD, (CV), read-out: AUCtau): 4160 ng·h/mL; Cmax (75 mg/m2, steady state, Cohort A1, 75 mg/m^2 QD, (CV)): 645 ng/mL; Tmax (75 mg/m2, steady state, Cohort A1, 75 mg/m^2 QD): 2 h; AUC (95 mg/m2, Cohort A1, 95 mg/m2 per dose, C1D15, Geometric Mean, N 9, read-out: AUC_TAU): 7470 ng·h/mL; Cmax [7]: 1020 ng/mL; Tmax [7]: 1.47 h; AUC (95 mg/m2, Cohort A1, 95 mg/m2 per dose, C1D15, Median, N 9, read-out: AUC_TAU): 6910 ng·h/mL; Cmax [8]: 1100 ng/mL; Tmax [8]: 1 h; AUC (95 mg/m2, Cohort B2, 95 mg/m2 per dose, C1D15, Geometric Mean, N 2, read-out: AUC_TAU): 6690 ng·h/mL; Cmax [9]: 817 ng/mL; Tmax [9]: 2.83 h; AUC (95 mg/m2, Cohort B2, 95 mg/m2 per dose, C1D15, Median, N 2, read-out: AUC_TAU): 6810 ng·h/mL; Cmax [10]: 824 ng/mL; Tmax [10]: 3 h; AUC (95 mg/m2, Cohort B2, 95 mg/m2 per dose, C1D15, individual patient, read-out: AUC_TAU): 8100 ng·h/mL; Cmax [11]: 926 ng/mL; Tmax [11]: 4 h; MRT last [12]: 7.38 h; Tmax [12]: 1 h; Cmax [13]: 914 ng/mL; Tmax [13]: 2 h; MRT last [14]: 9.06 h; Tmax [14]: 2 h; Tmax (95 mg/m2, Cycle 1 Day 15, Cohort A1, 95 mg/m2 per dose): 1 h; AUC(0-t) [15]: 8100 ng·h/mL; AUC(0-inf) (95 mg/m2, Cycle 1 Day 15, Cohort B2, 95 mg/m2 per dose, read-out: AUCINF_obs): 5730 ng·h/mL; AUC(0-inf) (95 mg/m2, Cycle 1 Day 15, Cohort B2, 95 mg/m2 per dose, read-out: AUCINF_pred): 5730 ng·h/mL; AUC (95 mg/m2, Cycle 1 Day 15, Cohort B2, 95 mg/m2 per dose, read-out: AUC_TAU): 8100 ng·h/mL; AUC (95 mg/m2, Cycle 1 Day 15, Cohort B2, 95 mg/m2 per dose, read-out: AUCall): 8100 ng·h/mL; Cmax [15]: 926 ng/mL; MRT inf (95 mg/m2, Cycle 1 Day 15, Cohort B2, 95 mg/m2 per dose, read-out: MRTINF_obs): 7.79 h; MRT inf (95 mg/m2, Cycle 1 Day 15, Cohort B2, 95 mg/m2 per dose, read-out: MRTINF_pred): 7.77 h; Tmax [15]: 4 h; MRT inf (95 mg/m2, Cycle 1 Day 15, Cohort A1, 95 mg/m2 per dose, individual patients, read-out: MRTINF_obs): 20.6 h; MRT inf (95 mg/m2, Cycle 1 Day 15, Cohort A1, 95 mg/m2 per dose, individual patients, read-out: MRTINF_pred): 20.5 h; AUC (95 mg/m2, steady state, Cohort A1, 95 mg/m^2 QD, (CV), read-out: AUCtau): 7470 ng·h/mL; Cmax (95 mg/m2, steady state, Cohort A1, 95 mg/m^2 QD, (CV)): 1020 ng/mL; Tmax (95 mg/m2, steady state, Cohort A1, 95 mg/m^2 QD): 1 h; AUC (95 mg/m2, steady state, Cohort B2 (with topotecan/cyclophosphamide), 95 mg/m^2 QD, individual values, read-out: AUCtau): 8100 ng·h/mL; Cmax [16]: 926 ng/mL; Tmax [16]: 4 h; AUC (100 mg, Cohort A2, 100 mg per dose, C1D15, Geometric Mean, N 5, read-out: AUC_TAU): 6790 ng·h/mL; Cmax [17]: 789 ng/mL; Tmax [17]: 1.74 h; AUC (100 mg, Cohort A2, 100 mg per dose, C1D15, Median, N 5, read-out: AUC_TAU): 6130 ng·h/mL; Cmax [18]: 569 ng/mL; Tmax [18]: 2 h; MRT last [19]: 12.4 h; Tmax [19]: 2 h; MRT inf (100 mg, Cycle 1 Day 15, Cohort A2, 100 mg per dose, individual patients, read-out: MRTINF_obs): 23.8 h; MRT inf (100 mg, Cycle 1 Day 15, Cohort A2, 100 mg per dose, individual patients, read-out: MRTINF_pred): 23.7 h; AUC (100 mg, steady state, Cohort A2, 100 mg QD, (CV), read-out: AUCtau): 6790 ng·h/mL; Cmax (100 mg, steady state, Cohort A2, 100 mg QD, (CV)): 789 ng/mL; Tmax (100 mg, steady state, Cohort A2, 100 mg QD): 2 h; AUC(0-t) [20]: 8990 ng·h/mL; MRT last [20]: 9.33 h; AUC (150 mg per dose, Cycle 1 Day 1, Cohort A2, 150 mg per dose, read-out: AUCall): 8990 ng·h/mL; Tmax [20]: 1 h; AUC(0-t) [21]: 5000 ng·h/mL; AUC (150 mg per dose, Cycle 1 Day 15, Cohort A2, 150 mg per dose, read-out: AUCall): 5000 ng·h/mL; Tmax [21]: 2 h; AUC (150 mg, Cohort A2, 150 mg per dose, C1D15, Geometric Mean, N 10, read-out: AUC_TAU): 6680 ng·h/mL; Cmax [22]: 741 ng/mL; Tmax [22]: 1.41 h; AUC (150 mg, Cohort A2, 150 mg per dose, C1D15, Median, N 10, read-out: AUC_TAU): 6890 ng·h/mL; Cmax [23]: 710 ng/mL; Tmax [23]: 1 h; AUC (150 mg, Cohort A2, 150 mg per dose, C1D15, individual patient, read-out: AUC_TAU): 5920 ng·h/mL; AUC(0-t) [24]: 5920 ng·h/mL; MRT last [24]: 8.35 h; AUC (150 mg, Cycle 1 Day 1, Cohort A2, 150 mg per dose, individual patients, read-out: AUCall): 5920 ng·h/mL; Cmax [24]: 564 ng/mL; Tmax [24]: 1 h; AUC (150 mg, Cycle 1 Day 15, Cohort A2, 150 mg per dose, read-out: AUC_TAU): 5000 ng·h/mL; AUC(0-t) [25]: 7380 ng·h/mL; AUC(0-inf) (150 mg, Cycle 1 Day 15, Cohort A2, 150 mg per dose, individual patients, read-out: AUCINF_pred): 8770 ng·h/mL; AUC (150 mg, Cycle 1 Day 15, Cohort A2, 150 mg per dose, individual patients, read-out: AUC_TAU): 7380 ng·h/mL; AUC (150 mg, Cycle 1 Day 15, Cohort A2, 150 mg per dose, individual patients, read-out: AUCall): 7380 ng·h/mL; concentration at 24 h (150 mg, Cycle 1 Day 15, Cohort A2, 150 mg per dose, individual patients, read-out: Clast_pred): 128 ng/mL; Cmax [25]: 658 ng/mL; MRT inf (150 mg, Cycle 1 Day 15, Cohort A2, 150 mg per dose, individual patients, read-out: MRTINF_obs): 16.8 h; MRT inf (150 mg, Cycle 1 Day 15, Cohort A2, 150 mg per dose, individual patients, read-out: MRTINF_pred): 16.7 h; AUC (150 mg, steady state, Cohort A2, 150 mg QD, (CV), read-out: AUCtau): 6680 ng·h/mL; Cmax (150 mg, steady state, Cohort A2, 150 mg QD, (CV)): 741 ng/mL; Tmax (150 mg, steady state, Cohort A2, 150 mg QD): 1 h

From publication PMC10202811 (Nature Medicine, 2023)
